# Data published in ChEMBL document CHEMBL3745709, “Synthesis of novel ethyl 1-ethyl-6-fluoro-7-(fatty amido)-1,4-dihydro-4-oxoquinoline-3-carboxylate derivatives and their biological evaluation” (Bioorg Med Chem Lett, 2016).
# How the values were obtained:
# A549 [1] = assay: Cytotoxicity against human A549 cells assessed as reduction in cell viability by MTT assay; assay type: functional, cell-based
# Pseudomonas aeruginosa = assay: Antibacterial activity against Pseudomonas aeruginosa MTCC 2453 assessed as inhibition zone after 24 hrs at 30 degC by well diffusion method; assay type: functional; conditions: MTCC 2453, 24 h
# A549 [2] = assay: Selectivity index, ratio of IC50 for human IMR90 cells to IC50 for human A549 cells; assay type: functional
# Staphylococcus aureus [3] = assay: Antibacterial activity against Staphylococcus aureus MLS-16 MTCC 2940 assessed as inhibition zone after 24 hrs at 30 degC by well diffusion method; assay type: functional; conditions: MLS-16 MTCC 2940, 24 h
# Bacillus subtilis = assay: Antibacterial activity against Bacillus subtilis MTCC 121 assessed as inhibition zone after 24 hrs at 30 degC by well diffusion method; assay type: functional; conditions: MTCC 121, 24 h
# [4] = Cytotoxicity against human DU145 cells assessed as reduction in cell viability by MTT assay; assay type: functional, cell-based; conditions: DU-145
# IMR-90 [5] = assay: Selectivity index, ratio of IC50 for human IMR90 cells to IC50 for human MCF7 cells; assay type: functional
# [6] = Cytotoxicity against human IMR90 cells assessed as reduction in cell viability by MTT assay; assay type: cell-based; conditions: IMR-90
# IMR-90 [7] = assay: Selectivity index, ratio of IC50 for human IMR90 cells to IC50 for human DU145 cells; assay type: functional
# [8] = Cytotoxicity against human SKOV3 cells assessed as reduction in cell viability by MTT assay; assay type: functional, cell-based; conditions: SK-OV-3
# Micrococcus luteus = assay: Antibacterial activity against Micrococcus luteus MTCC 2470 assessed as inhibition zone after 24 hrs at 30 degC by well diffusion method; assay type: functional; conditions: MTCC 2470, 24 h
# Escherichia coli = assay: Antibacterial activity against Escherichia coli MTCC 739 assessed as inhibition zone after 24 hrs at 30 degC by well diffusion method; assay type: functional; conditions: MTCC 739, 24 h
# MCF7 = assay: Cytotoxicity against human MCF7 cells assessed as reduction in cell viability by MTT assay; assay type: functional, cell-based
# [9] = Antioxidant activity assessed as DPPH free radical scavenging activity; assay type: physicochemical
# Staphylococcus aureus [10] = assay: Antibacterial activity against Staphylococcus aureus MTCC 96 […] after 24 hrs at 30 degC by well diffusion method; assay type: functional; conditions: MTCC 96, 24 h
# Raoultella planticola = assay: Antibacterial activity against Klebsiella planticola MTCC 530 assessed as inhibition zone after 24 hrs at 30 degC by well diffusion method; assay type: functional; conditions: MTCC 530, 24 h
# Candida albicans [11] = assay: Antifungal activity against Candida albicans MTCC 3017 […] after 24 hrs at 30 degC by well diffusion method; assay type: functional; conditions: MTCC 3017, 24 h
# SK-OV-3 = assay: Selectivity index, ratio of IC50 for human IMR90 cells to IC50 for human SKOV3 cells; assay type: functional
# Candida albicans [12] = assay: Antifungal activity against Candida albicans MTCC 854 assessed as inhibition zone after 24 hrs at 30 degC by well diffusion method; assay type: functional; conditions: MTCC 854, 24 h
# Candida parapsilosis [13] = assay: Antifungal activity against Candida parapsilosis MTCC 1744 assessed as inhibition zone after 24 hrs at 30 degC by well diffusion method; assay type: functional; conditions: Lodderomyces parapsilosis, MTCC 1744, 24 h
# Nakaseomyces glabratus [14] = assay: Antifungal activity against Candida glabrata MTCC 3019 assessed as inhibition zone after 24 hrs at 30 degC by well diffusion method; assay type: functional; conditions: MTCC 3019, 24 h
# Candida albicans [15] = assay: Antifungal activity against Candida albicans MTCC 183 assessed as inhibition zone after 24 hrs at 30 degC by well diffusion method; assay type: functional; conditions: MTCC 183, 24 h
# Candida albicans [16] = assay: Fungicidal activity against Candida albicans MTCC 3018 assessed as microbial killing after 24 hrs; assay type: functional; conditions: MTCC 3018, 24 h
# Candida albicans [17] = assay: Fungicidal activity against Candida albicans MTCC 3958 assessed as microbial killing after 24 hrs; assay type: functional; conditions: MTCC 3958, 24 h
# Candida albicans [18] = assay: Fungicidal activity against Candida albicans MTCC 4748 assessed as microbial killing after 24 hrs; assay type: functional; conditions: MTCC 4748, 24 h
# Candida albicans [19] = assay: Fungicidal activity against Candida albicans MTCC 183 assessed as microbial killing after 24 hrs; assay type: functional; conditions: MTCC 183, 24 h
# Candida albicans [20] = assay: Antifungal activity against Candida albicans MTCC 3958 assessed as inhibition zone after 24 hrs at 30 degC by well diffusion method; assay type: functional; conditions: MTCC 3958, 24 h
# Candida albicans [21] = assay: Fungicidal activity against Candida albicans MTCC 3017 assessed as microbial killing after 24 hrs; assay type: functional; conditions: MTCC 3017, 24 h
# Candida albicans [22] = assay: Fungicidal activity against Candida albicans MTCC 227 assessed as microbial killing after 24 hrs; assay type: functional; conditions: MTCC 227, 24 h
# Candida parapsilosis [23] = assay: Fungicidal activity against Candida parapsilosis MTCC 1744 assessed as microbial killing after 24 hrs; assay type: functional; conditions: Lodderomyces parapsilosis, MTCC 1744, 24 h
# [Candida] aaseri [24] = Fungicidal activity against Candida aaseri MTCC 1962 assessed as microbial killing after 24 hrs; assay type: functional; conditions: Yamadazyma aaseri, MTCC 1962, 24 h
# Candida albicans [25] = assay: Fungicidal activity against Candida albicans MTCC 1637 assessed as microbial killing after 24 hrs; assay type: functional; conditions: MTCC 1637, 24 h
# Pichia kudriavzevii [26] = assay: Fungicidal activity against Candida krusei MTCC 3020 assessed as microbial killing after 24 hrs; assay type: functional; conditions: MTCC 3020, 24 h
# Candida albicans [27] = assay: Fungicidal activity against Candida albicans MTCC 7315 assessed as microbial killing after 24 hrs; assay type: functional; conditions: MTCC 7315, 24 h
# Candida albicans [28] = assay: Antifungal activity against Candida albicans MTCC 1637 assessed as inhibition zone after 24 hrs at 30 degC by well diffusion method; assay type: functional; conditions: MTCC 1637, 24 h
# Candida albicans [29] = assay: Antifungal activity against Candida albicans MTCC 4748 assessed as inhibition zone after 24 hrs at 30 degC by well diffusion method; assay type: functional; conditions: MTCC 4748, 24 h
# Candida albicans [30] = assay: Antifungal activity against Candida albicans MTCC 3018 assessed as inhibition zone after 24 hrs at 30 degC by well diffusion method; assay type: functional; conditions: MTCC 3018, 24 h
# Candida albicans [31] = assay: Antifungal activity against Candida albicans MTCC 7315 assessed as inhibition zone after 24 hrs at 30 degC by well diffusion method; assay type: functional; conditions: MTCC 7315, 24 h
# Pichia kudriavzevii [32] = assay: Antifungal activity against Candida krusei MTCC 3020 assessed as inhibition zone after 24 hrs at 30 degC by well diffusion method; assay type: functional; conditions: MTCC 3020, 24 h
# Candida albicans [33] = assay: Antifungal activity against Candida albicans MTCC 227 assessed as inhibition zone after 24 hrs at 30 degC by well diffusion method; assay type: functional; conditions: MTCC 227, 24 h
# Nakaseomyces glabratus [34] = assay: Fungicidal activity against Candida glabrata MTCC 3019 assessed as microbial killing after 24 hrs; assay type: functional; conditions: MTCC 3019, 24 h
# Candida albicans [35] = assay: Fungicidal activity against Candida albicans MTCC 854 assessed as microbial killing after 24 hrs; assay type: functional; conditions: MTCC 854, 24 h
# Pichia sporocuriosa [36] = assay: Antifungal activity against Issatchenkia hanoiensis MTCC 4755 assessed as inhibition zone after 24 hrs at 30 degC by well diffusion method; assay type: functional; conditions: MTCC 4755, 24 h
# [Candida] aaseri [37] = Antifungal activity against Candida aaseri MTCC 1962 assessed as inhibition zone after 24 hrs at 30 degC by well diffusion method; assay type: functional; conditions: Yamadazyma aaseri, MTCC 1962, 24 h
# Pichia sporocuriosa [38] = assay: Fungicidal activity against Issatchenkia hanoiensis MTCC 4755 assessed as microbial killing after 24 hrs; assay type: functional; conditions: MTCC 4755, 24 h
smiles,measurement,setting,value
CCCCCCCCCCCC(=O)Nc1cc2c(cc1F)c(=O)c(C(=O)OCC)cn2CC,IC50,A549 [1],10.3 µM
same,MIC,Pseudomonas aeruginosa,> 125 µg/mL
same,Ratio IC50,A549 [2],7.7
same,MIC,Staphylococcus aureus [3],> 125 µg/mL
same,MIC,Bacillus subtilis,> 125 µg/mL
same,IC50,[4],12.1 µM
same,Ratio IC50,IMR-90 [5],7.1
same,IC50,[6],79.8 µM
same,Ratio IC50,IMR-90 [7],6.6
same,IC50,[8],9.8 µM
same,MIC,Micrococcus luteus,> 125 µg/mL
same,MIC,Escherichia coli,> 125 µg/mL
same,IC50,MCF7,11.2 µM
same,EC50,[9],Not Active
same,MIC,Staphylococcus aureus [10],> 125 µg/mL
same,MIC,Raoultella planticola,> 125 µg/mL
same,MIC,Candida albicans [11],> 125 µg/mL
same,Ratio IC50,SK-OV-3,8.1
CCCCCCCCCCCCCCCC(=O)Nc1cc2c(cc1F)c(=O)c(C(=O)OCC)cn2CC,IC50,A549 [1],24.3 µM
same,MIC,Pseudomonas aeruginosa,> 125 µg/mL
same,MIC,Staphylococcus aureus [3],> 125 µg/mL
same,MIC,Bacillus subtilis,> 125 µg/mL
same,IC50,[4],25.2 µM
same,IC50,[8],17.8 µM
same,MIC,Micrococcus luteus,> 125 µg/mL
same,MIC,Escherichia coli,> 125 µg/mL
same,IC50,MCF7,18.6 µM
same,EC50,[9],Not Active
same,MIC,Staphylococcus aureus [10],> 125 µg/mL
same,MIC,Raoultella planticola,> 125 µg/mL
same,MIC,Candida albicans [11],> 125 µg/mL
Cc1cc(C(C)(C)C)c(O)c(C(C)(C)C)c1 [BUTYLATED HYDROXYTOLUENE],EC50,[9],28.5 µg/mL
C=CCCCCCCCCC(=O)Nc1cc2c(cc1F)c(=O)c(C(=O)OCC)cn2CC,IC50,A549 [1],66.5 µM
same,MIC,Pseudomonas aeruginosa,> 125 µg/mL
same,MIC,Staphylococcus aureus [3],> 125 µg/mL
same,MIC,Bacillus subtilis,> 125 µg/mL
same,IC50,[4],87.3 µM
same,IC50,[8],91.2 µM
same,MIC,Micrococcus luteus,> 125 µg/mL
same,MIC,Escherichia coli,> 125 µg/mL
same,IC50,MCF7,64.6 µM
same,EC50,[9],147.5 µg/mL
same,MIC,Staphylococcus aureus [10],> 125 µg/mL
same,MIC,Raoultella planticola,> 125 µg/mL
same,MIC,Candida albicans [11],> 125 µg/mL
Clc1ccc(COC(Cn2ccnc2)c2ccc(Cl)cc2Cl)c(Cl)c1 (stereo unspecified) [MICONAZOLE],MIC,Candida albicans [12],7.8 µg/mL
same,MIC,Candida parapsilosis [13],7.8 µg/mL
same,MIC,Nakaseomyces glabratus [14],7.8 µg/mL
same,MIC,Candida albicans [15],7.8 µg/mL
same,MFC,Candida albicans [16],7.8 µg/mL
same,MFC,Candida albicans [17],15.6 µg/mL
same,MFC,Candida albicans [18],7.8 µg/mL
same,MFC,Candida albicans [19],7.8 µg/mL
same,MIC,Candida albicans [20],7.8 µg/mL
same,MFC,Candida albicans [21],7.8 µg/mL
same,MFC,Candida albicans [22],15.6 µg/mL
same,MFC,Candida parapsilosis [23],7.8 µg/mL
same,MFC,[Candida] aaseri [24],7.8 µg/mL
same,MFC,Candida albicans [25],15.6 µg/mL
same,MFC,Pichia kudriavzevii [26],7.8 µg/mL
same,MFC,Candida albicans [27],7.8 µg/mL
same,MIC,Candida albicans [28],7.8 µg/mL
same,MIC,Candida albicans [29],7.8 µg/mL
same,MIC,Candida albicans [11],7.8 µg/mL
same,MIC,Candida albicans [30],7.8 µg/mL
same,MIC,Candida albicans [31],7.8 µg/mL
same,MIC,Pichia kudriavzevii [32],7.8 µg/mL
same,MIC,Candida albicans [33],7.8 µg/mL
same,MFC,Nakaseomyces glabratus [34],15.6 µg/mL
same,MFC,Candida albicans [35],15.6 µg/mL
same,MIC,Pichia sporocuriosa [36],7.8 µg/mL
same,MIC,[Candida] aaseri [37],7.8 µg/mL
same,MFC,Pichia sporocuriosa [38],7.8 µg/mL
CCCCCCCCCCCCCC(=O)Nc1cc2c(cc1F)c(=O)c(C(=O)OCC)cn2CC,IC50,A549 [1],9.6 µM
same,MIC,Pseudomonas aeruginosa,> 125 µg/mL
same,Ratio IC50,A549 [2],9
same,MIC,Staphylococcus aureus [3],> 125 µg/mL
same,MIC,Bacillus subtilis,> 125 µg/mL
same,IC50,[4],10.4 µM
same,Ratio IC50,IMR-90 [5],9.4
same,IC50,[6],86.4 µM
same,Ratio IC50,IMR-90 [7],8.3
same,IC50,[8],8.2 µM
same,MIC,Micrococcus luteus,> 125 µg/mL
same,MIC,Escherichia coli,> 125 µg/mL
same,IC50,MCF7,9.1 µM
same,EC50,[9],286 µg/mL
same,MIC,Staphylococcus aureus [10],> 125 µg/mL
same,MIC,Raoultella planticola,> 125 µg/mL
same,MIC,Candida albicans [11],> 125 µg/mL
same,Ratio IC50,SK-OV-3,10.5
